Assay results published in patent US8003676B2, “1,3,4-oxadiazole derivatives as DGAT1 inhibitors” (AstraZeneca AB, priority 2006, dated 2011).

Experiments:
human DGAT1 = target: T1, human DGAT1 (Homo sapiens, UniProt O75907); assay: Human Enzyme Assay (DGAT1 inhibition, 14C oleoyl CoA, triolein formation); assay type: biochemical; conditions: human DGAT1 expressed in sf9 insect cell membranes
T1 construct: made in house; host or cells: Sf9 insect cells (baculovirus), membrane fraction
T1 sequence (O75907 1-488): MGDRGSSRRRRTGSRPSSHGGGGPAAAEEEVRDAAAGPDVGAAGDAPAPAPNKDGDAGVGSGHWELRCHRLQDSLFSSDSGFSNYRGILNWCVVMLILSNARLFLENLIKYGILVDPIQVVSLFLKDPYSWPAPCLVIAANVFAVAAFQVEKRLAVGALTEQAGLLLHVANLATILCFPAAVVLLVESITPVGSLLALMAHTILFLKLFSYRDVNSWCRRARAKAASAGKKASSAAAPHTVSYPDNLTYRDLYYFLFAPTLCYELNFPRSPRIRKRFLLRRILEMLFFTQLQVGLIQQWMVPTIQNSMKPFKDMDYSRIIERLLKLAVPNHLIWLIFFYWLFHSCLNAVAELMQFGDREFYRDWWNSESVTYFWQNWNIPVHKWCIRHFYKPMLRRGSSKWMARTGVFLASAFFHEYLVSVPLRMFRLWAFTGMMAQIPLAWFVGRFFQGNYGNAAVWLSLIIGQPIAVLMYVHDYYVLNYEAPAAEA
Protocol: The in vitro assay to identify DGAT1 inhibitors uses human DGAT1 expressed in insect cell membranes as the enzyme source (Proc. Natl. Acad. Sci. 1998, 95, 13018-13023). Briefly, sf9 cells were infected with recombinant baculovirus containing human DGAT1 coding sequences and harvested after 48 h. Cells were lysed by sonication and membranes isolated by centrifuging at 28000 rpm for 1 h at 4° C. on a 41% sucrose gradient. The membrane fraction at the interphase was collected, washed, and stored in liquid nitrogen.
DGAT1 activity was assayed by a modification of the method described by Coleman (Methods in Enzymology 1992, 209, 98-102). Compound at 1-10 μM was incubated with 0.4 μg membrane protein, 5 mM MgCl2, and 100 μM1,2 dioleoyl-sn-glycerol in a total assay volume of 200 μl in plastic tubes. The reaction was started by adding ^14C oleoyl coenzyme A (30 μM final concentration) and incubated at room temperature for 30 minutes. The reaction was stopped by adding 1.5 mL 2-propanol:heptane:water (80:20:2). Radioactive triolein product was separated into the organic phase by adding 1 mL heptane and 0.5 mL 0.1 M carbonate buffer pH 9.5. DGAT1 activity was quantified by counting aliquots of the upper heptane layer by liquid scintillography.

ACAT = ACAT enzyme assay (esterification of cholesterol); selectivity DGAT over ACAT; assay type: biochemical; conditions: DGAT vs ACAT enzyme assays
Protocol: • Mouse adipocyte 3T3 cells were cultured to confluency in 6 well plates in new born calf serum containing media. Differentiation of the cells was induced by incubating in medium containing 10% foetal calf serum, 1 μg/mL insulin, 0.25 μM dexamethasone and 0.5 mM isobutylmethyl xanthine. After 48 h the cells were maintained in medium containing 10% foetal calf serum and 1 μg/mL insulin for a further 4-6 days. For the experiment, the medium was changed to serum-free medium and the cells pre-incubated with compound solubilised in DMSO (final concentration 0.1%) for 30 minutes. De novo lipogenesis was measured by the addition of 0.25 mM sodium acetate plus 1 μCi/mL ^14C-sodium acetate to each well for a further 2 h (J. Biol. Chem., 1976, 251, 6462-6464). […] Incorporation of radiolabel into the triglyceride fraction was analysed using a Radiomatic Flo-one Detector (Packard) connected to the HPLC machine. […] De novo lipogenesis was measured by the addition of 50 μM sodium acetate plus 3 μCi/mL ^14C-sodium acetate to each well for a further 3 h (J. Biol. Chem., 1976, 251, 6462-6464). […] Incorporation of radiolabel into the triglyceride fraction was analysed using a Radiomatic Flo-one Detector (Packard) connected to the HPLC machine. • 3) The ability of compounds to inhibit ACAT can be measured using a modification of the enzyme assay described in Billheimer (1985) Methods in Enzymology, 111, 286-293. […]

IC50 (human DGAT1): 4 nM
selectivity to inhibit DGAT over inhibition of ACAT (ratio of IC50 values in the DGAT and ACAT enzyme assays) (ACAT): 70 fold
Structure (SMILES): O=C(Nc1ccc(O[C@H]2CC[C@@H](C(=O)O)CC2)cc1F)c1nnc(Nc2cc(F)c(F)cc2F)o1 [Example 1, cis-4-(3-Fluoro-4-{[5-(2,4,5-trifluoro-phenylamino)-[1,3,4]oxadiazole-2-carbonyl]-amino}-phenoxy)-cyclohexanecarboxylic acid]
